Data from patent US20260151517A1, “SOMATOSTATIN RECEPTOR-TARGETING RADIOPHARMACEUTICALS AND USES THEREOF” (Nuclidium AG, priority 2024, published 2026).
Read-outs that look alike come from different tables or passages of the source. *1 amine or outer side, *2 acyl side, *3 side chain or, on linkers, in order; H or OH if unused. Where a SMILES comes first, the peptide text is derived from it. Bridges are numbered along the chain shown (N, C = ends). [ ]: non-standard residue; d: D form. The star is where a group is joined. NODAGA = O=C(O)CN1CCN(CC(=O)O)CCN(C(CCC(=O)*)C(=O)O)CC1; X1 = NC(=O)Nc1ccc(CC(N[*:1])C(=O)[*:2])cc1; Phe(4-Cl) = N[CH](Cc1ccc(Cl)cc1)C(=O)O

What was measured:
[1] = format: physicochemical; settings: pH 7.4
Protocol: The mixture was vortexed for 30 min and then centrifuged at 3000 rpm to achieve phase separation. Aliquots from each phase were collected and measured in a gamma counter. The distribution coefficient was calculated as the average logarithmic values of the ratio between the radioactivity in the organic and the PBS phase.

[2] = Biodistribution studies; format: in vivo, mice; settings: athymic nude Foxn1^nu, mouse, iv, 1 MBq, total radioactivity
Protocol: (§1) The dose of the administered radiopharmaceutical was 1 MBq ([…]) diluted to 100 μL with saline solution. The mice were euthanized at 4 hours post-injection, and the organs of interest were collected, rinsed, blotted, weighed, and analyzed in a gamma counter. The results were expressed as the percentage of injected activity per gram of tissue (% IA/g) and reported as mean±standard deviation in Table 32.

[3] = system: HEK-SST2 xenografted mice; experiment: Biodistribution studies; format: in vivo; settings: 4 hours post-injection, 1 MBq i.v.
Protocol: as §1

[4] = in vivo; set-up: species or system mice; settings: athymic nude Foxn1^nu, mouse, iv, 13 MBq, total radioactivity
Protocol: Dynamic PET scans were acquired for 1 hour post-injection of the investigated radiopharmaceutical. The mice were euthanized using carbon dioxide at 4 hours post-injection, the bladder was mechanically emptied, and static PET scans were acquired for 30 min. PET images were obtained using the β-CUBE PET scanner system (MOLECUBES) and were decay corrected and reconstructed with the VivoQuant software version 4.0. Tomograms and helical CT scans of the whole mouse were first acquired using a NanoSPECT/CTTM scanner (Bioscan Inc.). CT images were reconstructed using CTReco (version r1.146), resulting in a pixel size of 0.2 mm. InVivoScope (version 1.43, Bioscan Inc.) software was used to generate the maximum intensity projection (MIP) of the co-registered PET/CT images presented in FIG. 10.

[5] = system: well-differentiated BP and GEP neuroendocrine tumors (NET); experiment: Human clinical trial, PET/CT imaging vs [^68Ga]Ga-DOTATOC PET/CT; format: in vivo; settings: Subjects 1-4 and 6
Protocol: The study will be a prospective, open-label, controlled, reader-blind, single center, phase I/II PET/CT study.
The study product will be a single intravenous administration of GMP produced [^61Cu]Cu-NODAGA-LM3 followed by up to three PET/CT acquisitions. [^61Cu]Cu-NODAGA-LM3 will be administered once intravenously at an amount of 20-40 μg (or 13-26 nmol) and an activity range of 150 MBq (±25%).
The control intervention will be [^68Ga]Ga-DOTA-TOC PET/CT (150 MBq (±25%)) (including CE-CT), is acquired as standard of care and not part of the study, but scan results will be used as comparator for the diagnostic efficacy analysis (Phase II).
The diagnostic efficacy analysis (sensitivity, tumor uptake and image contrast (TBR), will be done in comparison with [^68Ga]Ga-DOTA-TOC PET/CT acquired as standard of care in a randomized, cross-over order. Readers of the scans will be blinded for imaging time point, tracers and clinical data and will follow a locked-read methodology. Number of Participants and Rationale: n=27 patients (including 22 patients for the sensitivity analysis powered for both superiority and non-inferiority design and 5 patients with negative [^68Ga]Ga-DOTATOC PET/CT and a positive NETest) […]

[6] = system: HEK-SST2 xenograft mice; settings: athymic nude Foxn1^nu, mouse, in vivo, 4 h
Protocol: Unless otherwise specified, the in vivo studies were performed on athymic nude Foxn1^nu 4-6 weeks-old mice. Animals were injected in the shoulder with HEK-SST2 cells (10^7 cells/200 μL) suspended in PBS. The in vivo experiments were performed when tumors reached a volume between 100-500 mm. At the intervention, all mice were between 7 and 11 weeks old.
The specificity study was performed parallel to pharmacokinetics studies. For this reason, NODAGA-LM3 was radiolabeled with ^64Cu.
The specificity of [^64Cu]Cu-NODAGA-LM3 for SSTR2-expressing tissues was evaluated in HEK-SST2 xenograft mice through a blocking study. The mice were administered with 0.15 MBq of [^64Cu]Cu-NODAGA-LM3 co-injected with a 2000-fold excess of DOTA-LM3 as a blocking agent. The mice were sacrificed 4 hours post-injection, and the organs were collected. weighed, and counted in a gamma counter.

Compound: CC(O)C1NC(=O)C(CCCCN)NC(=O)C(Cc2ccc(NC(N)=O)cc2)NC(=O)C(Cc2ccc(O)cc2)NC(=O)C(NC(=O)C(Cc2ccc(Cl)cc2)NC(=O)CCC(C(=O)O)N2CCN(CC(=O)O)CCN(CC(=O)O)CC2)CSSCC(C(=O)NC(Cc2ccc(O)cc2)C(N)=O)NC1=O (stereo not shown) [[^61Cu]Cu-NODAGA-LM3, metal not drawn] ({NODAGA}-[Phe(4-Cl)]CY[X1]KTCY-NH2; disulfide 2-7; configuration not given here)
- logD [1]: -2.95 ± 0.08
- tissue to tissue ratio at 4 h ([2]; in vivo, Tumor-to-organ uptake ratio Tumor/Blood): 181
- tissue to tissue ratio at 4 h ([2]; in vivo, Tumor-to-organ uptake ratio Tumor/Liver): 26
- tissue to tissue ratio at 4 h ([2]; in vivo, Tumor-to-organ uptake ratio Tumor/Muscles): 185
- tissue to tissue ratio at 4 h ([2]; in vivo, Tumor-to-organ uptake ratio Tumor/Pituitary): 5.3
- tissue uptake at 4 h ([2]; in vivo, Uptake [% IA/g] Adrenal): 0.61 ± 0.18 %ID/g
- tissue uptake at 4 h ([2]; in vivo, Uptake [% IA/g] Blood): 0.11 ± 0.01 %ID/g
- tissue uptake at 4 h ([2]; in vivo, Uptake [% IA/g] Bone): 0.42 ± 0.12 %ID/g
- tissue uptake at 4 h ([2]; in vivo, Uptake [% IA/g] HEK-STT2-tumor): 19 ± 2.1 %ID/g
- tissue uptake at 4 h ([2]; in vivo, Uptake [% IA/g] Heart): 0.17 ± 0.02 %ID/g
- tissue uptake at 4 h ([2]; in vivo, Uptake [% IA/g] Intestine): 0.58 ± 0.12 %ID/g
- tissue uptake at 4 h ([2]; in vivo, Uptake [% IA/g] Liver): 0.73 ± 0.06 %ID/g
- tissue uptake at 4 h ([2]; in vivo, Uptake [% IA/g] Lung): 0.42 ± 0.05 %ID/g
- tissue uptake at 4 h ([2]; in vivo, Uptake [% IA/g] Muscle): 0.1 ± 0.02 %ID/g
- tissue uptake at 4 h ([2]; in vivo, Uptake [% IA/g] Pancreas): 0.44 ± 0.24 %ID/g
- tissue uptake at 4 h ([2]; in vivo, Uptake [% IA/g] Pituitary): 3.64 ± 0.31 %ID/g
- tissue uptake at 4 h ([2]; in vivo, Uptake [% IA/g] Spleen): 0.18 ± 0.02 %ID/g
- tissue uptake at 4 h ([2]; in vivo, Uptake [% IA/g] Stomach): 0.79 ± 0.13 %ID/g
- tissue uptake at 4 h ([2]; kidneys, 4 hours post-injection, 1 MBq i.v., read-out: Uptake [% IA/g] Kidneys): 3.87 ± 0.51 %ID/g
- tissue to tissue ratio at 4 h ([2]; tumor / all organs except kidneys, 4 hours post-injection, read-out: tumor-to-organ uptake ratio, all the organs except for kidneys): > 5
- tissue to tissue ratio at 4 h ([2]; tumor/kidney, 4 hours post-injection, read-out: Tumor-to-organ uptake ratio Tumor/Kidney): 4.9
- Uptake [% IA/g] Kidneys [3]: 3.87±0.51 % IA/g
- tissue to tissue ratio [4]: 4
- physiological uptake in the liver, spleen, and GI tract [5]: very low physiological uptake
- Uptake Blood [6]: 0.10 ± 0.02 % IA/g
- Uptake Heart [6]: 0.20 ± 0.01 % IA/g
- Uptake Liver [6]: 0.90 ± 0.20 % IA/g
- Uptake Muscle [6]: 0.02 ± 0.01 % IA/g
